Measured values from US10336775B2 (Asceneuron SA, priority 2014, dated 2019).

Each compound was assayed against His-Tagged hOGA (human O-GlcNAcase) (Homo sapiens (Human), UniProt O60502) (assay: Human O-GlcNAcase enzyme inhibition assay (Example B01)). Settings: OGA IC50 (M), OGA enzyme inhibition assay; activity range classes defined in μM.
Type: biochemical

Sequence of His-Tagged hOGA (human O-GlcNAcase) (O60502 whole entry): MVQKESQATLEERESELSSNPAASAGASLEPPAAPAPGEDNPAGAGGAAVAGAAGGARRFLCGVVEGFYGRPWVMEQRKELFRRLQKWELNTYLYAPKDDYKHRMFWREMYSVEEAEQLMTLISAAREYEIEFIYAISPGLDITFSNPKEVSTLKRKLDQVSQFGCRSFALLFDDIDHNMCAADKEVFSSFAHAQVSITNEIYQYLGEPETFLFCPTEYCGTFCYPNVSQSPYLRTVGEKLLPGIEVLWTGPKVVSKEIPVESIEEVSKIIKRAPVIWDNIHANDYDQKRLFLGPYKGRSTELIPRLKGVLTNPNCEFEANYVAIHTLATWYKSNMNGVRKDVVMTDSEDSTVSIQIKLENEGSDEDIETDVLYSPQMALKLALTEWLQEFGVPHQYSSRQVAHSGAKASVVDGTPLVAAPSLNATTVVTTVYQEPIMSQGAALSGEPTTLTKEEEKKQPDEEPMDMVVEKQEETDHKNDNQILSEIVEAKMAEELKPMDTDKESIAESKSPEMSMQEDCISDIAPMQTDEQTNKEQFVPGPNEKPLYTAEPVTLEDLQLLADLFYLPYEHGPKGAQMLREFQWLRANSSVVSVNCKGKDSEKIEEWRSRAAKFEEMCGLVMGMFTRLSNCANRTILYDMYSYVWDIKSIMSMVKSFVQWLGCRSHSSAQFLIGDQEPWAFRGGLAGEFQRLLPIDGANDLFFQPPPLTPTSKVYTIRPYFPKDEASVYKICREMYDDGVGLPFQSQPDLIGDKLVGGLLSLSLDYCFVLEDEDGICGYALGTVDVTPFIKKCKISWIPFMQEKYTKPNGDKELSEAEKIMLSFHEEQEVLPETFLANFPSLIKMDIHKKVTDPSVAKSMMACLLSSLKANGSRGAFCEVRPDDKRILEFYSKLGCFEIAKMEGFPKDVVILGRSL

| SMILES | IC50 |
| --- | --- |
| CC(=O)Nc1cnc(N2CCN(C(C)c3ccc4cccnc4c3)CC2)nc1 (racemic) [Example 120, N-(2-(4-(1-(quinolin-7-yl)ethyl)piperazin-1-yl)pyrimidin-5-yl)acetamide] | 5e-08 to 2e-07 M |
| CC(c1ccc2nccnc2c1)N1CCN(c2nc3cnccc3s2)CC1 (racemic) [Example 140, 2-(4-(1-(quinoxalin-6-yl)ethyl)piperazin-1-yl)thiazolo[4,5-c]pyridine] | 2e-07 to 1e-06 M |
| Cc1csc(N2CCN(C(C)c3ccc4c(c3)OCO4)CC2)n1 (racemic) [Example 144, 1-[1-(1,3-benzodioxol-5-yl)ethyl]-4-(4-methyl-2-thiazolyl)-piperazine] | 2e-07 to 1e-06 M |

Same assay, conditions: OGA enzyme inhibition assay; activity range classes defined in μM; read-out: OGA IC50

| SMILES | IC50 |
| --- | --- |
| CC(=O)Nc1cnc(N2CCN(C(C)c3ccc4nccnc4c3)CC2)nc1 (racemic) [Example 93, N-(2-(4-(1-(quinoxalin-6-yl)ethyl)piperazin-1-yl)pyrimidin-5-yl)acetamide] | < 5e-08 M |
| CC(c1ccc2nccnc2c1)N1CCN(c2nccc(C(F)(F)F)n2)CC1 (racemic) [Example 94, 6-(1-(4-(4-(trifluoromethyl)pyrimidin-2-yl)piperazin-1-yl)ethyl)quinoxaline] | 2e-07 to 1e-06 M |
| CC(=O)Nc1cnc(N2CCN(C(C)c3ccc4c(c3)OCCO4)CC2)nc1 (racemic) [Example 96, N-(2-(4-(1-(2,3-Dihydrobenzo[b][1,4]dioxin-6-yl)ethyl)piperazin-1-yl)pyrimidin-5-yl)acetamide] | < 5e-08 M |
| CC(=O)Nc1nnc(N2CCN(C(C)c3ccc4c(c3)OCCO4)CC2)s1 (racemic) [Example 97, N-(5-(4-(1-(2,3-Dihydrobenzo[b][1,4]dioxin-6-yl)ethyl)piperazin-1-yl)-1,3,4-thiadiazol-2-yl)acetamide] | < 5e-08 M |
| CNC(=O)c1cnc(N2CCN(C(C)c3ccc4c(c3)OCO4)CC2)nc1 (racemic) [Example 98, 2-(4-(1-(Benzo[d][1,3]dioxol-5-yl)ethyl)piperazin-1-yl)-N-methylpyrimidine-5-carboxamide] | < 5e-08 M |
| CC(c1ccc2c(c1)OCO2)N1CCN(c2ncc(C(=O)N(C)C)cn2)CC1 (racemic) [Example 99, 2-(4-(1-(benzo[d][1,3]dioxol-5-yl)ethyl)piperazin-1-yl)-N,N-dimethylpyrimidine-5-carboxamide] | < 5e-08 M |
| CC(=O)Nc1nnc(N2CCN(C(C)c3ccc4c(Cl)ccnc4c3)CC2)s1 (racemic) [Example 100, N-(5-(4-(1-(4-chloroquinolin-7-yl)ethyl)piperazin-1-yl)-1,3,4-thiadiazol-2-yl)acetamide] | 2e-07 to 1e-06 M |
| CC(=O)Nc1cnc(N2CCN(C(C)c3ccc4c(Cl)ccnc4c3)CC2)nc1 (racemic) [Example 101, N-(2-(4-(1-(4-chloroquinolin-7-yl)ethyl)piperazin-1-yl)pyrimidin-5-yl)acetamide] | 2e-07 to 1e-06 M |
| Cc1cnc(N2CCN(C(C)c3ccc4nccnc4c3)CC2)nc1 (racemic) [Example 102, 6-(1-(4-(5-Methylpyrimidin-2-yl)piperazin-1-yl)ethyl)quinoxaline] | 5e-08 to 2e-07 M |
| CCc1cnc(N2CCN(C(C)c3ccc4nccnc4c3)CC2)nc1 (racemic) [Example 103, 6-(1-(4-(5-ethylpyrimidin-2-yl)piperazin-1-yl)ethyl)quinoxaline] | 5e-08 to 2e-07 M |
| CCC(=O)Nc1nnc(N2CCN(C(C)c3ccc4c(c3)OCO4)CC2)s1 (racemic) [Example 105, N-(5-(4-(1-(benzo[d][1,3]dioxol-5-yl)ethyl)piperazin-1-yl)-1,3,4-thiadiazol-2-yl)propionamide] | < 5e-08 M |
| CCCC(=O)Nc1nnc(N2CCN(C(C)c3ccc4c(c3)OCO4)CC2)s1 (racemic) [Example 106, N-(5-(4-(1-(benzo[d][1,3]dioxol-5-yl)ethyl)piperazin-1-yl)-1,3,4-thiadiazol-2-yl)butyramide] | < 5e-08 M |
| CC(C)C(=O)Nc1nnc(N2CCN(C(C)c3ccc4c(c3)OCO4)CC2)s1 (racemic) [Example 107, N-(5-(4-(1-(benzo[d][1,3]dioxol-5-yl)ethyl)piperazin-1-yl)-1,3,4-thiadiazol-2-yl)isobutyramide] | < 5e-08 M |
| CC(c1ccc2c(c1)OCO2)N1CCN(c2nnc(NC(=O)C3CC3)s2)CC1 (racemic) [Example 108, N-(5-(4-(1-(benzo[d][1,3]dioxol-5-yl)ethyl)piperazin-1-yl)-1,3,4-thiadiazol-2-yl)cyclo propanecarboxamide] | < 5e-08 M |
| CNC(=O)c1cnc(N2CCN(C(C)c3ccc4c(c3)OCCO4)CC2)s1 (racemic) [Example 109, 2-(4-(1-(2,3-dihydrobenzo[b][1,4]dioxin-6-yl)ethyl)piperazin-1-yl)-N-methylthiazole-5-carboxamide] | < 5e-08 M |
| CC(c1ccc2c(c1)OCO2)N1CCN(c2nnc(NC(=O)c3ccc(Cl)cc3)s2)CC1 (racemic) [Example 110, N-(5-(4-(1-(benzo[d][1,3]dioxol-5-yl)ethyl)piperazin-1-yl)-1,3,4-thiadiazol-2-yl)-4-chlorobenzamide] | 5e-08 to 2e-07 M |
| CC(c1ccc2c(c1)OCO2)N1CCN(c2nnc(NCc3ccc(Cl)cc3)s2)CC1 (racemic) [Example 111, 5-(4-(1-(benzo[d][1,3]dioxol-5-yl)ethyl)piperazin-1-yl)-N-(4-chlorobenzyl)-1,3,4-thiadiazol-2-amine] | 5e-08 to 2e-07 M |
| CCNc1nnc(N2CCN(C(C)c3ccc4c(c3)OCO4)CC2)s1 (racemic) [Example 112, 5-(4-(1-(benzo[d][1,3]dioxol-5-yl)ethyl)piperazin-1-yl)-N-ethyl-1,3,4-thiadiazol-2-amine] | 5e-08 to 2e-07 M |
| CC(c1ccc2c(c1)OCO2)N1CCN(c2ncc3cc[nH]c3n2)CC1 (racemic) [Example 113, 2-(4-(1-(benzo[d][1,3]dioxol-5-yl)ethyl)piperazin-1-yl)-7H-pyrrolo[2,3-d]pyrimidine] | 5e-08 to 2e-07 M |
| CC(=O)Nc1nnc(N2CCN(C(C)c3ccc4scnc4c3)CC2)s1 (racemic) [Example 114, N-(5-(4-(1-(benzo[d]thiazol-5-yl)ethyl)piperazin-1-yl)-1,3,4-thiadiazol-2-yl)acetamide] | < 5e-08 M |
| CC(=O)Nc1nnc(N2CCN(C(C)c3ccc4cccnc4c3)CC2)s1 (racemic) [Example 115, N-(5-(4-(1-(quinolin-7-yl)ethyl)piperazin-1-yl)-1,3,4-thiadiazol-2-yl)acetamide] | 5e-08 to 2e-07 M |
| CC(=O)Nc1cnc(N2CCN(C(C)c3ccc4scnc4c3)CC2)nc1 (racemic) [Example 116, N-(2-(4-(1-(benzo[d]thiazol-5-yl)ethyl)piperazin-1-yl)pyrimidin-5-yl)acetamide] | < 5e-08 M |

More lines, now with the values ahead:

| IC50 | SMILES |
| --- | --- |
| 2e-07 to 1e-06 M | CC(=O)Nc1nnc(N2CCN(C(C)c3ccc4c(c3)OC(F)(F)O4)CC2)s1 (racemic) [Example 117] |
| 2e-07 to 1e-06 M | CC(=O)Nc1cnc(N2CCN(C(C)c3ccc4c(c3)OC(F)(F)O4)CC2)nc1 (racemic) [Example 118] |
| 5e-08 to 2e-07 M | CC(c1ccc2c(c1)OCO2)N1CCN(c2ncc3ccccc3n2)CC1 (racemic) [Example 119, 2-(4-(1-(benzo[d][1,3]dioxol-5-yl)ethyl)piperazin-1-yl)quinazoline] |
| 1e-06 to 1e-05 M | CC(=O)Nc1cnc(N2CCN(C(C)c3ccc4nonc4c3)CC2)nc1 (racemic) [Example 121, N-(2-(4-(1-(benzo[c][1,2,5]oxadiazol-5-yl)ethyl)piperazin-1-yl)pyrimidin-5-yl)acetamide] |
| < 5e-08 M | CC(=O)Nc1cnc(N2CCN(C(C)c3ccc4nsnc4c3)CC2)nc1 (racemic) [Example 122, N-(2-(4-(1-(benzo[c][1,2,5]thiadiazol-5-yl)ethyl)piperazin-1-yl)pyrimidin-5-yl)acetamide] |
| < 5e-08 M | CC(=O)Nc1nnc(N2CCN(C(C)c3ccc4nsnc4c3)CC2)s1 (racemic) [Example 123, N-(5-(4-(1-(benzo[c][1,2,5]thiadiazol-5-yl)ethyl)piperazin-1-yl)-1,3,4-thiadiazol-2-yl)acetamide] |
| 1e-06 to 1e-05 M | CC(=O)Nc1nnc(N2CCN(C(C)c3ccc4cc(Cl)cnc4c3)CC2)s1 (racemic) [Example 124] |
| 1e-06 to 1e-05 M | CC(=O)Nc1cnc(N2CCN(C(C)c3ccc4cc(Cl)cnc4c3)CC2)nc1 (racemic) [Example 125, N-(2-(4-(1-(3-chloroquinolin-7-yl)ethyl)piperazin-1-yl)pyrimidin-5-yl)acetamide] |
| 2e-07 to 1e-06 M | CC(=O)Nc1cnc(N2CCN(C(C)c3ccc4c(c3)OCCCO4)CC2)nc1 (racemic) [Example 126, N-(2-(4-(1-(3,4-dihydro-2H-benzo[b][1,4]dioxepin-7-yl)ethyl)piperazin-1-yl)pyrimidin-5-yl)acetamide] |
| 1e-06 to 1e-05 M | CC(=O)Nc1cnc(N2CCN(C(C)c3cccc4cccnc34)CC2)nc1 (racemic) [Example 127, N-(2-(4-(1-(quinolin-8-yl)ethyl)piperazin-1-yl)pyrimidin-5-yl)acetamide] |
| < 5e-08 M | CC(=O)Nc1nnc(N2CCN(C(C)c3ccc4c(c3)OCC4)CC2)s1 (racemic) [Example 128, N-(5-(4-(1-(2,3-dihydrobenzofuran-6-yl)ethyl)piperazin-1-yl)-1,3,4-thiadiazol-2-yl)acetamide] |
| < 5e-08 M | CC(=O)Nc1cnc(N2CCN(C(C)c3ccc4c(c3)OCC4)CC2)nc1 (racemic) [Example 129, N-(2-(4-(1-(2,3-dihydrobenzofuran-6-yl)ethyl)piperazin-1-yl)pyrimidin-5-yl)acetamide] |
| 2e-07 to 1e-06 M | CC(c1ccc2c(c1)OCO2)N1CCN(c2nc3ccccc3s2)CC1 (racemic) [Example 130, 2-(4-(1-(benzo[d][1,3]dioxol-5-yl)ethyl)piperazin-1-yl)benzo[d]thiazole] |
| 1e-06 to 1e-05 M | CC(c1ccc2nccnc2c1)N1CCN(c2nc3ccccc3s2)CC1 (racemic) [Example 135, 2-(4-(1-(quinoxalin-6-yl)ethyl)piperazin-1-yl)benzo[d]thiazole] |

Same assay, conditions: measured according to Example B01

| SMILES | OGA inhibitor activity (in words) |
| --- | --- |
| CC(=O)Nc1nnc(N2CCN(C(C)c3ccc4scnc4c3)CC2)s1 (racemic) [Example 114, N-(5-(4-(1-(benzo[d]thiazol-5-yl)ethyl)piperazin-1-yl)-1,3,4-thiadiazol-2-yl)acetamide] | very potent OGA inhibitors |
| CC(=O)Nc1cnc(N2CCN(C(C)c3ccc4scnc4c3)CC2)nc1 (racemic) [Example 116, N-(2-(4-(1-(benzo[d]thiazol-5-yl)ethyl)piperazin-1-yl)pyrimidin-5-yl)acetamide] | very potent OGA inhibitors |

The remaining lines, values ahead:

| OGA inhibitor activity (in words) | SMILES |
| --- | --- |
| very potent OGA inhibitors | CC(=O)Nc1nnc(N2CCN(C(C)c3ccc4c(c3)OCC4)CC2)s1 (racemic) [Example 128, N-(5-(4-(1-(2,3-dihydrobenzofuran-6-yl)ethyl)piperazin-1-yl)-1,3,4-thiadiazol-2-yl)acetamide] |
| very potent OGA inhibitors | CC(=O)Nc1cnc(N2CCN(C(C)c3ccc4c(c3)OCC4)CC2)nc1 (racemic) [Example 129, N-(2-(4-(1-(2,3-dihydrobenzofuran-6-yl)ethyl)piperazin-1-yl)pyrimidin-5-yl)acetamide] |
